Test results taken from paper PMC11557314 (Frontiers in Pharmacology, 2024).
Where no end group is shown, it is not given here.

What was measured:
hKOPr [1] = molecular target: T1, hKOPr (Homo sapiens, UniProt P41145); assay: biochemical; conditions: for Emax: read-out: Efficacy at hKOPr Emax
hMOPr [2] = molecular target: T2, hMOPr (Homo sapiens, UniProt P35372); assay: Competitive radio binding assay with [3H]-DAMGO on hMOPr-CHO cell membranes; conditions: read-out: Ki hMOPr; [3H]-DAMGO 1 nM, 60 min 25°C; mean ± SEM
[3] = test system: p38 phosphorylation in hKOPr-CHO cells; assay: Western blot of phospho-p38 in hKOPr-CHO cells; format: cell-based, human; conditions: 1 µM, 10 min, ratio phosphorylated to non-phosphorylated protein
Protocol: hKOPr-CHO cells were seeded in 10-cm dishes and cultured until they reached 70%–80% confluency. Overnight serum starvation was initiated by replacing the culture medium with FBS-free medium [DMEM supplemented with 100 μg/mL GlutaMAX, 100 μg/mL penicillin/streptomycin, and 400 μg/mL geneticin (G418)]. […] The FBS-free medium was used as the control. After the treatment, cells were rinsed and harvested in cold PBS by scraping the dishes using a rubber policeman. Cell suspensions were centrifuged at 4°C for 7 min at 21,000 g, and the supernatants were removed. Pellets were then resuspended and washed in ice-cold PBS. […] Total proteins of the supernatant cell lysate were quantified by the biuret assay (Carl Roth GmbH, Karlsruhe, Germany). Antibody linearity ranges were determined for target proteins and the internal loading control, and the combined linear range was then used to determine how much sample should be loaded in order to produce a linear signal response. […] Immunoreactive bands were detected by incubating the membranes in a horseradish peroxidase-conjugated secondary antibody (1:5,000, Invitrogen), followed by incubation with enhanced chemiluminescence reagent (Merck Immobilon). […] To avoid errors introduced by stripping the membranes, total and phosphorylated proteins were analyzed from parallel gels. […]

hMOPr [4] = molecular target: T2, hMOPr; format: biochemical; conditions: for EC50: read-out: hMOPr EC50, stimulation of [35S]GTPγS binding
hKOPr [5] = molecular target: T1, hKOPr; assay: cell-based; format: cell-based; conditions: for Emax: HEK293, read-out: β-Arrestin recruitment, efficacy at hKOPr Emax; for EC50: read-out: β-Arrestin recruitment, potency at hKOPr EC50
hKOPr [6] = assay: Biased factor calculation from GTPγS and PRESTO-Tango data; parameters: species or system human; conditions: G-protein vs β-arrestin, DynA as reference; below 1 = β-arrestin bias
Description: To perform biased factor analyses, we followed the step-by-step protocol described by [Nagi and Pineyro (2016)]. In short, curve fitting was used to calculate τ and Ka values for G-protein and β-arrestin pathway activation. Log(τ/Ka) ratios were subtracted by log(τ/Ka) of DynA as the reference to yield ΔLog(τ/Ka) values for each peptide. In a final step for each peptide, ΔLog (τ/Ka) values for G-protein pathway activation were subtracted from ΔLog(τ/Ka) values for β-arrestin pathway activation and vice versa to calculate ΔΔLog(τ/Ka). The biased factor is yielded by delogging ΔΔLog (τ/Ka).
To confidently identify a G-protein-biased peptide of interest, it is essential to keep in mind that the responses we collected through GTPγS and PRESTO-Tango assay are not solely determined by drug signaling properties but also by the way the cell and different assays “perceive” the generation of this response. These different “perceptions” of the pharmacological stimulus may themselves be responsible for an imbalance among signals from different pathways. To avoid this, and to be able to correctly estimate whether a peptide is indeed biased, we applied the method proposed by [Kenakin et al. (2012)], that is based on the operational method proposed by [Black and Leff (1983)]. This method takes into consideration receptor occupation by the agonist, communication of the pharmacological stimulus to the system, and the processing of the stimulus by the system that produces the response.

hDOPr = hDOPr (Homo sapiens, UniProt P41143); assay: Competitive radio binding assay with [3H]-diprenorphine on hDOPr-CHO cell membranes; conditions: read-out: Ki hDOPr; [3H]-diprenorphine 1 nM, 60 min 25°C; mean ± SEM
hKOPr [7] = molecular target: T1, hKOPr; format: binding; conditions: for Ki: read-out: Ki hKOPr
[8] = read-out: Potency at hKOPr EC50
[9] = read-out: hKOPr EC50, stimulation of [35S]GTPγS binding

T2 sequence (P35372 whole entry): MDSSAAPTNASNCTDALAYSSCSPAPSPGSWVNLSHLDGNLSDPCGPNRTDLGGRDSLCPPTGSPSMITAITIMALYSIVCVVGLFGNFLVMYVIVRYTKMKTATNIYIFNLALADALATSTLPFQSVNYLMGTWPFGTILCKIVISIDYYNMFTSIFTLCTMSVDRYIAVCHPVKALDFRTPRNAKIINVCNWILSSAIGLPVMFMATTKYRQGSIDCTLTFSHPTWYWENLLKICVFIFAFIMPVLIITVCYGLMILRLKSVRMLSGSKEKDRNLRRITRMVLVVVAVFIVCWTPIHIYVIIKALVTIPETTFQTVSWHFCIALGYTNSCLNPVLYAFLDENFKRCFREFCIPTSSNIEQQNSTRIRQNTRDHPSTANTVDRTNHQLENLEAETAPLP
T1 sequence (P41145 whole entry): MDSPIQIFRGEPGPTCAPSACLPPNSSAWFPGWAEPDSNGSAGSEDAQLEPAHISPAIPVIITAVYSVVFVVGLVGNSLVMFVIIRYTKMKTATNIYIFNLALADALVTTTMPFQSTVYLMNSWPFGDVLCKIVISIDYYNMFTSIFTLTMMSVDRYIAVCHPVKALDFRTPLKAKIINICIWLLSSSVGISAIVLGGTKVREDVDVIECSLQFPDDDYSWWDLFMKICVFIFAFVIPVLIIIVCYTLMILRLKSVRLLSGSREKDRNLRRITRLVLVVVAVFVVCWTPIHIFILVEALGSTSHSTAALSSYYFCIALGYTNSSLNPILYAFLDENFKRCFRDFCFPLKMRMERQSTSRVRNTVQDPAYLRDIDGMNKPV
hDOPr, sequence (P41143 whole entry): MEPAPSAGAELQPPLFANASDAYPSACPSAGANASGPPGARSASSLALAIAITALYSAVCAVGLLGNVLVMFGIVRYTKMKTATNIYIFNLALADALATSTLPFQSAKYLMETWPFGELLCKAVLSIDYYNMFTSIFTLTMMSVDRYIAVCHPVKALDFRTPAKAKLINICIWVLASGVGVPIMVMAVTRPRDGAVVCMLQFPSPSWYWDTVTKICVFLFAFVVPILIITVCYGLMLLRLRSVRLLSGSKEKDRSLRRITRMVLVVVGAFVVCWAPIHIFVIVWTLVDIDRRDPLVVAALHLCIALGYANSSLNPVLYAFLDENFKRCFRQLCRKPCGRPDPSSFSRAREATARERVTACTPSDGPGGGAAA

| Sequence | Selectivity DOPr/KOPr (GTPγS) (hKOPr [1]) | Selectivity MOPr/KOPr (GTPγS) (hKOPr [1]) | hKOPr % stim, stimulation of [35S]GTPγS binding (hKOPr [1]) | preference for hKOPr over hDOPr (GTPγS) (hKOPr [1]) | Emax (hKOPr [1]) | EC50 (hKOPr [1]; [8]) | EC50 (hKOPr [1]; [9]) | Ki (hMOPr [2]) | p38 phosphorylation compared to DynB_WT [3] | hMOPr % stim, stimulation of [35S]GTPγS binding (hMOPr [4]) | EC50 (hMOPr [4]) | Emax (hKOPr [5]) | EC50 (hKOPr [5]) | biased factor at hKOPr (hKOPr [6]) | Ki (hDOPr) | Selectivity DOPr/KOPr (hKOPr [7]) | Selectivity MOPr/KOPr (hKOPr [7]) | Ki (hKOPr [7]) | other results |
| --- | --- | --- | --- | --- | --- | --- | --- | --- | --- | --- | --- | --- | --- | --- | --- | --- | --- | --- | --- |
| YGAFLRRAFKVVT [DynB_G3A/Q8A] | 84 | 20 | 88.6 ± 3.1% | 84 fold | 88.6 ± 3.1% | 0.0146 ± 0.00157 µM | 0.0146 ± 0.0016 µM | 0.0861 ± 0.007 µM | significantly less phosphorylated | 111 ± 7.7% | 0.297 ± 0.0466 µM | 88.7 ± 2.6% | 0.0661 ± 0.0016 µM | 0.6 ± 0.2 | 0.417 ± 0.052 µM | 778 | 161 | 0.00054 µM | potency for hKOPr as compared to DynB (GTPγS) (hKOPr [1]): minor reduction in the potency; preference for hKOPr over hMOPr (GTPγS) (hKOPr [1]): 20 fold; stimulation of the receptor (β-arrestin recruitment) in comparison to DynB_WT (hKOPr [5]): lower stimulation |
| YGGFSRRQFKVVT [DynB_L5S] | 17 | 6 | 99.1 ± 2.1% | 17 fold | 99.1 ± 2.1% | 0.0177 ± 0.00284 µM | 0.0177 ± 0.0028 µM | 0.0186 ± 0.0013 µM | significantly less phosphorylated | 93.4 ± 5.6% | 0.107 ± 0.0086 µM | 95.1 ± 7.7% | 0.146 ± 0.0265 µM | 0.7 ± 0.2 | 0.573 ± 0.0226 µM | 4,153 | 135 | 0.00014 µM | potency for β-arrestin recruitment compared to DynB_WT (hKOPr [5]): significantly lower potency |
